Measurements from PubChem BioAssay AID248 (DTP/NCI, 2004).
Values joined by “and” are separate entries in the source; they are usually repeats but may differ in a detail not shown here. Equal values may be shown once. Toxic doses and inconclusive results are not listed. Cut-off read from the data, not from the text of the source: active = T/C of 150% or more; inactive = T/C below 125%. Square brackets hold non-standard residues; d marks the D form. Peptide text beside a SMILES is read from it. * marks the point of attachment. ξ: configuration not given here. ξW = NC(Cc1c[nH]c2ccccc12)C(=O)O; Cbz = O=C(OCc1ccccc1)*

System: L1210 leukemia ip in BDF1 mice, survival T/C
Assay: NCI In Vivo Anticancer Drug Screen. Data for tumor model L1210 Leukemia (intraperitoneal) in B6D2F1 (BDF1) mice
Settings: endpoint: mean survival time, higher = longer survival
Method in brief: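 Value reflects the ratio of survival in compound-treated mice to survival in vehicle-treated controls, with both groups carrying the same transplanted tumor.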

[1] = dose: 50.0 mg/kg/injection, schedule: Q01DX009 (ip), vehicle: saline
[2] = dose: 100.0 mg/kg/injection, schedule: Q01DX009 (ip), vehicle: saline
[3] = dose: 100.0 mg/kg/injection, schedule: Q04DX003 (ip), vehicle: saline
[4] = dose: 200.0 mg/kg/injection, schedule: Q01DX009 (ip), vehicle: saline
[5] = dose: 200.0 mg/kg/injection, schedule: Q04DX003 (ip), vehicle: saline
[6] = dose: 400.0 mg/kg/injection, schedule: Q04DX003 (ip), vehicle: saline
[7] = dose: 100.0 mg/kg/injection, schedule: Q04DX003 (ip), vehicle: Klucel (hydroxypropylcellulose) (HPC)
[8] = dose: 200.0 mg/kg/injection, schedule: Q04DX003 (ip), vehicle: Klucel (hydroxypropylcellulose) (HPC)
[9] = dose: 6.25 mg/kg/injection, schedule: Q01DX009 (ip), vehicle: saline
[10] = dose: 50.0 mg/kg/injection, schedule: Q01DX009 (ip), vehicle: Klucel (hydroxypropylcellulose) (HPC)
[11] = dose: 100.0 mg/kg/injection, schedule: Q04DX003 (ip), vehicle: saline with Tween-80
[12] = dose: 200.0 mg/kg/injection, schedule: Q04DX003 (ip), vehicle: saline with Tween-80
[13] = dose: 400.0 mg/kg/injection, schedule: Q04DX003 (ip), vehicle: saline with Tween-80
[14] = dose: 100.0 mg/kg/injection, schedule: Q04DX002 (ip), vehicle: Klucel (hydroxypropylcellulose) (HPC)
[15] = dose: 200.0 mg/kg/injection, schedule: Q04DX002 (ip), vehicle: Klucel (hydroxypropylcellulose) (HPC)
[16] = dose: 400.0 mg/kg/injection, schedule: Q04DX002 (ip), vehicle: Klucel (hydroxypropylcellulose) (HPC)
[17] = dose: 100.0 mg/kg/injection, schedule: Q01DX001 (ip), vehicle: carboxymethylcellulose (CMC)
[18] = dose: 400.0 mg/kg/injection, schedule: Q01DX001 (ip), vehicle: carboxymethylcellulose (CMC)

Measured: T/C

O=C(O)Cc1c(O)ccc2ccccc12
inactive: dose: 100.0 mg/kg/injection, schedule: Q01DX009 (ip), vehicle: gum acacia 92 % of control | dose: 100.0 mg/kg/injection, schedule: Q04DX003 (ip), vehicle: gum acacia 97 % of control | dose: 200.0 mg/kg/injection, schedule: Q01DX009 (ip), vehicle: gum acacia 90 % of control | dose: 200.0 mg/kg/injection, schedule: Q04DX003 (ip), vehicle: gum acacia 92 % of control | dose: 400.0 mg/kg/injection, schedule: Q01DX009 (ip), vehicle: gum acacia 98 % of control | dose: 400.0 mg/kg/injection, schedule: Q04DX003 (ip), vehicle: gum acacia 90 % of control

CCc1ccc(C(=O)O)oc1=O
inactive: dose: 75.0 mg/kg/injection, schedule: Q01DX001 (ip), vehicle: saline 89 % of control | dose: 150.0 mg/kg/injection, schedule: Q01DX001 (ip), vehicle: saline 92 % of control

NC(N)=Nc1ccc(C(=O)Nc2ccc([N+](=O)[O-])cc2)cc1
inactive: [1] 101 % of control | [2] 94 % of control | [3] 95 % of control | [4] 90 % of control | [5] 101 % of control | [6] 97 % of control

CN(C)S(=O)(=O)ON1C(=O)c2ccccc2C1=O
inactive: dose: 75.0 mg/kg/injection, schedule: Q01DX001 (ip), vehicle: other 103 % of control | dose: 150.0 mg/kg/injection, schedule: Q01DX001 (ip), vehicle: other 108 % of control | dose: 300.0 mg/kg/injection, schedule: Q01DX001 (ip), vehicle: other 94 % of control

COc1nc(NNC(N)=S)ccc1[N+](=O)[O-]
inactive: [7] 91 % of control | [8] 93 % of control | dose: 400.0 mg/kg/injection, schedule: Q04DX003 (ip), vehicle: Klucel (hydroxypropylcellulose) (HPC) 93 % of control

CC(C)(C#N)C(C)(C)c1cnc2ccccc2c1
inactive: [7] 96 % of control | [8] 101 % of control

C/C(=N/N(C)C)c1ccc(Br)cc1
inactive: [9] 100 % of control | dose: 12.5 mg/kg/injection, schedule: Q01DX009 (ip), vehicle: saline 94 % of control | dose: 25.0 mg/kg/injection, schedule: Q01DX009 (ip), vehicle: saline 92 % of control | [10] 108 % of control

COC(=O)C(Cc1c[nH]c2ccccc12)NC(=O)CNC(=O)CNC(=O)OCc1ccccc1 (stereo not drawn) (Cbz-Gly-Gly-[ξW]-OMe)
inactive: [11] 105 % of control | [12] 101 % of control | [13] 100 % of control

CCOC(=O)CNc1ccc(C)c(C)c1
inactive: [14] 95 % of control | [15] 109 % of control | [16] 104 % of control

COCC1OC(n2cc(C)c(=O)n(C)c2=O)CC1OC (stereo unspecified)
inactive: dose: 50.0 mg/kg/injection, schedule: Q01DX005 (ip), vehicle: saline 102 % of control | dose: 100.0 mg/kg/injection, schedule: Q01DX005 (ip), vehicle: saline 98 % of control | dose: 200.0 mg/kg/injection, schedule: Q01DX005 (ip), vehicle: saline 100 % of control

O=C(OC(c1ccccc1)c1ccccc1)C(=O)c1ccccc1
inactive: [11] 92 % of control | [12] 89 % of control | [13] 92 % of control

N#Cc1cnc2nc(N)nc(N)c2c1
inactive: [1] 95 % of control and 105 % of control | [2] 95 % of control and 91 % of control | [3] 95 % of control | [4] 95 % of control and 98 % of control and 90 % of control | [5] 106 % of control

IC1CCCCC1[n+]1ccccc1 (stereo unspecified)
inactive: dose: 100.0 mg/kg/injection, schedule: Q04DX003 (sc), vehicle: olive oil, sesame oil, peanut oil 105 % of control | dose: 200.0 mg/kg/injection, schedule: Q04DX003 (sc), vehicle: olive oil, sesame oil, peanut oil 103 % of control | dose: 400.0 mg/kg/injection, schedule: Q04DX003 (sc), vehicle: olive oil, sesame oil, peanut oil 101 % of control

CNC(=O)NCCOC(=O)NC
inactive: [2] 94 % of control | [3] 96 % of control | [4] 98 % of control | [5] 101 % of control | dose: 400.0 mg/kg/injection, schedule: Q01DX009 (ip), vehicle: saline 107 % of control | [6] 101 % of control

CCOC(=O)NC(NC(=O)OCC)c1ccc(Cl)cc1Cl
inactive: [17] 88 % of control | [18] 88 % of control

CN(C)Cc1cc(C23CC4CC(CC(C4)C2)C3)cc(-c2ccccc2)c1O
inactive: dose: 100.0 mg/kg/injection, schedule: Q04DX003 (ip), vehicle: acetone 95 % of control | dose: 200.0 mg/kg/injection, schedule: Q04DX003 (ip), vehicle: acetone 98 % of control | dose: 400.0 mg/kg/injection, schedule: Q04DX003 (ip), vehicle: acetone 90 % of control

Cc1cccc2cc3cccc[n+]3cc12
inactive: dose: 1.56 mg/kg/injection, schedule: Q04DX003 (ip), vehicle: saline 101 % of control | dose: 3.12 mg/kg/injection, schedule: Q01DX009 (ip), vehicle: saline 96 % of control | dose: 3.12 mg/kg/injection, schedule: Q04DX003 (ip), vehicle: saline 93 % of control | [9] 96 % of control | dose: 6.25 mg/kg/injection, schedule: Q04DX003 (ip), vehicle: saline 97 % of control | dose: 12.5 mg/kg/injection, schedule: Q04DX003 (ip), vehicle: saline 100 % of control

CC(C(=O)O)N(C)C(=O)c1cnc2ccccc2n1 (stereo unspecified)
inactive: [17] 94 % of control | dose: 100.0 mg/kg/injection, schedule: Q04DX003 (ip), vehicle: carboxymethylcellulose (CMC) 95 % of control | dose: 200.0 mg/kg/injection, schedule: Q01DX001 (ip), vehicle: carboxymethylcellulose (CMC) 96 % of control | dose: 200.0 mg/kg/injection, schedule: Q04DX003 (ip), vehicle: carboxymethylcellulose (CMC) 99 % of control | [18] 89 % of control | dose: 400.0 mg/kg/injection, schedule: Q04DX003 (ip), vehicle: carboxymethylcellulose (CMC) 97 % of control

Cc1cc(NC(=S)Nc2ccccc2)c(NC(=S)Nc2ccccc2)cc1C
inactive: dose: 12.5 mg/kg/injection, schedule: Q01DX005 (ip), vehicle: Klucel (hydroxypropylcellulose) (HPC) 103 % of control | dose: 25.0 mg/kg/injection, schedule: Q01DX005 (ip), vehicle: Klucel (hydroxypropylcellulose) (HPC) 87 % of control | dose: 25.0 mg/kg/injection, schedule: Q01DX009 (ip), vehicle: Klucel (hydroxypropylcellulose) (HPC) 96 % of control | dose: 50.0 mg/kg/injection, schedule: Q01DX005 (ip), vehicle: Klucel (hydroxypropylcellulose) (HPC) 103 % of control | [10] 96 % of control | dose: 100.0 mg/kg/injection, schedule: Q01DX005 (ip), vehicle: Klucel (hydroxypropylcellulose) (HPC) 97 % of control and 101 % of control | dose: 100.0 mg/kg/injection, schedule: Q01DX009 (ip), vehicle: Klucel (hydroxypropylcellulose) (HPC) 93 % of control | dose: 150.0 mg/kg/injection, schedule: Q01DX009 (ip), vehicle: Klucel (hydroxypropylcellulose) (HPC) 97 % of control | dose: 335.0 mg/kg/injection, schedule: Q01DX009 (ip), vehicle: Klucel (hydroxypropylcellulose) (HPC) 90 % of control | dose: 400.0 mg/kg/injection, schedule: Q01DX005 (ip), vehicle: Klucel (hydroxypropylcellulose) (HPC) 101 % of control

CC(O)(Cc1ccccc1)c1ccccc1 (stereo unspecified)
inactive: dose: 44.0 mg/kg/injection, schedule: Q04DX003 (ip), vehicle: saline with Tween-80 94 % of control | dose: 66.0 mg/kg/injection, schedule: Q04DX003 (ip), vehicle: saline with Tween-80 94 % of control | dose: 100.0 mg/kg/injection, schedule: Q01DX009 (ip), vehicle: saline with Tween-80 102 % of control | [11] 94 % of control | dose: 150.0 mg/kg/injection, schedule: Q04DX003 (ip), vehicle: saline with Tween-80 96 % of control | dose: 200.0 mg/kg/injection, schedule: Q01DX009 (ip), vehicle: saline with Tween-80 98 % of control | [12] 107 % of control | dose: 400.0 mg/kg/injection, schedule: Q01DX009 (ip), vehicle: saline with Tween-80 102 % of control | [13] 104 % of control

COC(=O)c1ccccc1NC(=O)COc1cc(Cl)c(Cl)cc1Cl
inactive: [14] 96 % of control | [15] 89 % of control | [16] 86 % of control
